From US11530212B2, “Fluorescent probe compound for zinc ion, as well as preparation method and use thereof” (Wuyi University, priority 2019, dated 2022) come the findings set out here.

The nature of assay [1]: Fluorescence property test of probe with metal ion solution. To be noted: Zn^2+ solution; CH3OH-H2O (v:v=1:1); FIG. 3. How it is done: (§1) The fluorescence property of the fluorescent probe compound according to the present disclosure was measured, including the following steps:
(§2) (1) Formulating a Probe Solution:
(§3) formulating a solution of 2-(7-(2,8-dimethyl quinoline-6-yl)-5,6,7,8-tetrahydro-1,8-naphthyridin-2-yl) phenol with a concentration of 100 μM in methanol, i.e. a probe solution, and stored at room temperature.
(§4) (2) Formulating Metal Ion Solutions: […]
(§5) the metal ions including: Mg^2+, Fe^2+, Cu^+, Cu^2+, Sn^4+, Co^2+, Mn^2+, K^+, Li^+, Ba^2+, Ca^2+, Cd^2+, Ni^2+, Fe^3+, Al^3+ and Zn^2+; and the respectively solutions of them were prepared from the corresponding hydrochloride salts thereof. Taking a certain amount of metal salts, dissolved in 10 mL of distilled water to formulate a 10-2 mol/L metal ion solution, and stored for later use.
(§6) (3) Fluorescence Property Test:
(§7) formulating solution to be tested: taking 0.5 mL of the formulated probe solution and 0.5 mL of the formulated metal ion solution, mixing with 4 mL solution of a CH3OH—H2O (v:v=1:1) to obtain a solution to be tested of the metal ion.
(§8) formulating blank solution: taking 0.5 mL of the formulated probe solution, mixed with solution of 2.5 mL water and 2 mL methanol.
(§9) analyzing the fluorescence intensity of solution to be tested by fluorescence spectrum, and the analysis result was shown in FIG. 3.

Assay [2] is described as follows: Competitive experiment: Zn^2+ detection in presence of other metal ions. To be noted: Zn^2+ solution (10 NM) plus other metal ion of the same concentration; FIG. 3. How it is done: In order to further verify the specificity of the zinc ion fluorescent probe compound to the zinc ion, a competitive experiment was conducted: adding the Zn^2+ solution (10 NM) into the probe solution formulated in step (1) together with a solution of any other one of the aforesaid metal ions of the same concentration; testing the effects of other competitive ions on the Zn^2+ selectivity of the zinc ion fluorescent probe compound respectively. The test results were shown in FIG. 3 (all test solution was uniformly labeled as “zinc ion fluorescent probe compound+M+Zn”).

Assay [3] can be described thus: Fluorescence titration with different concentrations of Zn^2+ (detection range and limit). To be noted: Zn^2+ concentration 4×10^-6 M; FIG. 4. The procedure: Different concentrations of Zn^2+ were added into the probe solution formulated in step (1) to test the fluorescence property of the probe solution, so as to determine the detection range and detection limit for Zn^2+ of the fluorescent probe compound.

Assay [4] can be described thus: Fluorescence property test of probe with other metal ion solutions. To be noted: Mg^2+, Fe^2+, Cu^+, Cu^2+, Sn^4+, Co^2+, Mn^2+, K^+, Li^+, Ba^2+, Ca^2+, Cd^2+, Ni^2+, Fe^3+ or Al^3+; CH3OH-H2O (v:v=1:1); FIG. 3. How it is done: as §1, §2, §3, §4, §5, §6, §7, §8, §9

Structures are written as SMILES.

For the molecule `Cc1ccc2cc(C3CCc4ccc(-c5ccccc5O)nc4N3)cc(C)c2n1` (stereo not shown) [fluorescent probe compound, 2-(7-(2,8-dimethylquinoline-6-yl)-5,6,7,8-tetrahydro-1,8-naphthyridin-2-yl) phenol], the “fluorescence intensity change (F/F0) of the solution to be tested” value in assay [1] is “significant fluorescence decay”; in assay [4], “changed slightly”. Besides, the “change of Zn^2+ detection before and after addition of other competitive ions” value in assay [2] is recorded as “almost no change”. In assay [3], the “fluorescence intensity of the compound” value is listed as “dramatic decay”.
